From patent US10265276B2, “Pharmaceutical composition for preventing or treating arthritis or inflammatory disease containing 2-methoxy-4-(3-(4-methoxyphenyl)propyl-1-en-1-yl)phenol as active ingredient” (CHUNGBUK NATIONAL UNIVERSITY INDUSTRY-ACADEMIC COOPERATION …, priority 2015, dated 2019)

Tested on: CAIA-induced C57BL/6 mice
Experiment: Collagen antibody-induced arthritis (CAIA) model
Assay type: in vivo, mouse
Settings: 5 mg/kg, p.o. daily
Procedure: 14. Induction of rheumatoid arthritis in C57BL/6 mice: To induce rheumatoid arthritis, anti-collagen-II mAbs (CII-Ab, Arthrogen-CIA Arthritogenic Monoclonal Antibody, #53010: Chondrex, Inc., WA, USA) were intraperitoneally (i.p.) injected into 7-week-old male mice on the first day, and 50 μg of LPS was injected on the third day. To evaluate the severity of arthritis, a scoring system was applied according to the criteria.
0. No erythema and swelling are observed.
1. Slight erythema is observed in tarsals and ankle joints.
2. Slight erythema and swelling are observed from an ankle joint to the midfoot.
3. Erythema and swelling extending from ankle joints to the metatarsals are observed.
4. Erythema and severe swelling were observed throughout the ankles, feet, and fingers.
The sum of final scores was recorded daily until the sum reached 16. On the 18th day, each of the mice was anesthetized, and then located on a radiographic view box. Thereafter, a location of each of the mice was adjusted so that the mouse was disposed at a distance of 90 cm from an X-ray source. The radioanalysis on hind legs with arthritis was performed by irradiating the hind legs at […] for 0.01 seconds using an X-ray machine (BLD-150RK, Hradec Kralove, Czech Republic).
15. Immunohistochemical assay: An immunohistochemical assay was carried out using an avidin-biotin-peroxidase method known in the art. Each of joint tissue samples collected from the mice was fixed with formalin, and embedded in paraffin. These samples were continuously microtomed into sections with a thickness of 4 μm. Each of the sections was stained with haematoxylin/eosin (H&E), anti-COX-2 and anti-iNOS antibodies (Caymen Chemical, Ann Arbor, Mich.).
Referring to FIG. 10(A), MMPP (5 mg/kg, p.o.) (dissolved in 100 μL of PBS including 0.5 μL of DMSO), a vehicle (a negative control), or indomethacin (5 mg/kg, p.o./dissolved in […] of PBS after the dissolution) was administered daily to 7-week-old male C57BL/6 mice for 18 days.

## COc1ccc2c(c1)c(CC(=O)O)c(C)n2C(=O)c1ccc(Cl)cc1 [indomethacin, reference compound]
  clinical score lower than that of the CAIA group: 64.8%
